Laboratory results published in patent US4093796A, “Antibiotic derivatives of polyene macrolide group and method of obtaining the same” (Politechnika Gdanska, priority 1971, dated 1978).
Values after ≈ are worked out from the molar mass of the structure shown.

Columns and labels:
Type in all cases: cell-based
Candida sp. = assay: inhibition of pathogenic strains isolated from contaminated human members, Candida sp.; details: 8 strains studied
Experimental: (§3) Studies were also conducted on the activity of the glucose derivative of nystatin, as compared with nystatin, in relation to a series of pathogenic strains of Candida and Geotrichum isolated from contaminated human members.

Candida albicans [1] = assay: antimicrobial activity in solid nutrient medium (serial dilution), Candida albicans; details: solid Sabouraud medium, 36° C, 24 hours
Experimental: (§1) (a) determination of the antimicrobial activity of antibiotics and their derivatives in solid nutrient medium-- table 1
(§2) The antimicrobial activity in solid nutrient medium has been estimated with the aid of the serial dilution method as follows: 1 mg of antibiotic was dissolved in 1 ml of dimethylsulphoxide and diluted with 9 ml of sterile water. Serial dilutions in water had been performed and the minimum concentration inhibiting the growth of standard strains of Candida albicans and Saccahromyces cerevisiae estimated: 0.5 ml of the antibiotic solution was mixed in a Petri dish 10 cm in diameter with 9.5 ml of Sabouraud medium having a temperature of about 60° C. After mixing, solidifying the nutrient agar and inoculating the test microorganism on the surface, they were incubated at 36° C for 24 hours. The minimum inhibitory concentration was stated on the basis of observed absence of microorganism growth.

Geotrichum sp. = assay: inhibition of pathogenic strains isolated from contaminated human members, Geotrichum sp.; details: 12 strains studied
Experimental: as §3

Saccahromyces cerevisiae = assay: antimicrobial activity in solid nutrient medium (serial dilution), Saccharomyces cerevisiae; details: solid Sabouraud medium, 36° C, 24 hours
Experimental: as §1, §2

Candida albicans [2] = assay: inhibition of pathogenic strains isolated from contaminated human members, Candida albicans; details: 12 strains studied
Experimental: as §3

[3] = Candida sp. after 24 hrs, 3.12 mcg/ml
[4] = Candida sp. after 24 hrs, 6.25 mcg/ml
[5] = Candida sp. after 24 hrs, 12.5 mcg/ml
[6] = Candida sp. after 24 hrs, 25.0 mcg/ml
[7] = Candida sp. after 24 hrs, 50.0 mcg/ml
[8] = Candida sp. after 48 hrs, 3.12 mcg/ml
[9] = Candida sp. after 48 hrs, 6.25 mcg/ml
[10] = Candida sp. after 48 hrs, 12.5 mcg/ml
[11] = Candida sp. after 48 hrs, 25.0 mcg/ml
[12] = Candida sp. after 48 hrs, 50.0 mcg/ml
[13] = Geotrichum sp. after 24 hrs, 3.12 mcg/ml
[14] = Geotrichum sp. after 24 hrs, 6.25 mcg/ml
[15] = Geotrichum sp. after 24 hrs, 12.5 mcg/ml
[16] = Geotrichum sp. after 24 hrs, 25.0 mcg/ml
[17] = Geotrichum sp. after 24 hrs, 50.0 mcg/ml
[18] = Geotrichum sp. after 48 hrs, 3.12 mcg/ml
[19] = Geotrichum sp. after 48 hrs, 6.25 mcg/ml
[20] = Geotrichum sp. after 48 hrs, 12.5 mcg/ml
[21] = Geotrichum sp. after 48 hrs, 25.0 mcg/ml
[22] = Geotrichum sp. after 48 hrs, 50.0 mcg/ml
[23] = Candida albicans after 24 hrs, 3.12 mcg/ml
[24] = Candida albicans after 24 hrs, 6.25 mcg/ml
[25] = Candida albicans after 24 hrs, 12.5 mcg/ml
[26] = Candida albicans after 24 hrs, 25.0 mcg/ml
[27] = Candida albicans after 24 hrs, 50.0 mcg/ml
[28] = Candida albicans after 48 hrs, 3.12 mcg/ml
[29] = Candida albicans after 48 hrs, 6.25 mcg/ml
[30] = Candida albicans after 48 hrs, 12.5 mcg/ml
[31] = Candida albicans after 48 hrs, 25.0 mcg/ml
[32] = Candida albicans after 48 hrs, 50.0 mcg/ml

| Compound | Number of strains the growth of which has been inhibited (Candida sp.; [3]) | Number of strains the growth of which has been inhibited (Candida sp.; [4]) | Number of strains the growth of which has been inhibited (Candida sp.; [5]) | Number of strains the growth of which has been inhibited (Candida sp.; [6]) | Number of strains the growth of which has been inhibited (Candida sp.; [7]) | Number of strains the growth of which has been inhibited (Candida sp.; [8]) | Number of strains the growth of which has been inhibited (Candida sp.; [9]) | Number of strains the growth of which has been inhibited (Candida sp.; [10]) | Number of strains the growth of which has been inhibited (Candida sp.; [11]) | Number of strains the growth of which has been inhibited (Candida sp.; [12]) | Minimum inhibitory concentration against Candida albicans (Candida albicans [1]) | Number of strains the growth of which has been inhibited (Geotrichum sp.; [13]) | Number of strains the growth of which has been inhibited (Geotrichum sp.; [14]) | Number of strains the growth of which has been inhibited (Geotrichum sp.; [15]) | Number of strains the growth of which has been inhibited (Geotrichum sp.; [16]) | Number of strains the growth of which has been inhibited (Geotrichum sp.; [17]) | Number of strains the growth of which has been inhibited (Geotrichum sp.; [18]) | Number of strains the growth of which has been inhibited (Geotrichum sp.; [19]) | Number of strains the growth of which has been inhibited (Geotrichum sp.; [20]) | Number of strains the growth of which has been inhibited (Geotrichum sp.; [21]) | further results |
| --- | --- | --- | --- | --- | --- | --- | --- | --- | --- | --- | --- | --- | --- | --- | --- | --- | --- | --- | --- | --- | --- |
| C[C@@H]1[C@H](O)[C@@H](C)/C=C/C=C/CC/C=C/C=C/C=C/C=C/[C@H](O[C@@H]2O[C@H](C)[C@@H](O)[C@H](NC3O[C@H](CO)[C@@H](O)[C@H](O)[C@H]3O)[C@@H]2O)C[C@@H]2O[C@](O)(C[C@@H](O)[C@H](O)CC[C@@H](O)C[C@@H](O)C[C@@H](O)CC(=O)O[C@H]1C)C[C@H](O)[C@H]2C(=O)O (stereo partly shown) [glucose derivative of nystatin] | 2 strains | 5 strains | 0 strains | 1 strains | 0 strains | 0 strains | 2 strains | 3 strains | 2 strains | 1 strains | 2 µg/mL (≈ 1.84 µM) | 0 strains | 5 strains | 7 strains | 0 strains | 0 strains | 0 strains | 0 strains | 9 strains | 3 strains | Number of strains the growth of which has been inhibited (Geotrichum sp.; [22]): 0 strains; Minimum inhibitory concentration against cerevisiae (Saccahromyces cerevisiae): 2 µg/mL (≈ 1.84 µM); Number of strains the growth of which has been inhibited (Candida albicans [2]; [23]): 1 strains; Number of strains the growth of which has been inhibited (Candida albicans [2]; [24]): 11 strains; Number of strains the growth of which has been inhibited (Candida albicans [2]; [25]): 0 strains; Number of strains the growth of which has been inhibited (Candida albicans [2]; [26]): 0 strains; Number of strains the growth of which has been inhibited (Candida albicans [2]; [27]): 0 strains; Number of strains the growth of which has been inhibited (Candida albicans [2]; [28]): 0 strains; Number of strains the growth of which has been inhibited (Candida albicans [2]; [29]): 0 strains; Number of strains the growth of which has been inhibited (Candida albicans [2]; [30]): 12 strains; Number of strains the growth of which has been inhibited (Candida albicans [2]; [31]): 0 strains; Number of strains the growth of which has been inhibited (Candida albicans [2]; [32]): 0 strains |
| C[C@@H]1[C@H](O)[C@@H](C)/C=C/C=C/CC/C=C/C=C/C=C/C=C/C(O[C@H]2O[C@H](C)[C@@H](O)[C@H](N)[C@@H]2O)CC2O[C@](O)(CC(O)C(O)CCC(O)CC(O)CC(O)CC(=O)O[C@H]1C)CC(O)C2C(=O)O (stereo partly shown) [nystatin] | 3 strains | 1 strains | 2 strains | 0 strains | 0 strains | 3 strains | 1 strains | 3 strains | 1 strains | 0 strains | 2 µg/mL (≈ 2.16 µM) | 2 strains | 10 strains | 0 strains | 0 strains | 0 strains | 0 strains | 5 strains | 7 strains | 0 strains | Number of strains the growth of which has been inhibited (Candida sp.; Candida sp. after 24 hrs, 1.56 mcg/ml): 2 strains; Number of strains the growth of which has been inhibited (Candida sp.; Candida sp. after 48 hrs, 1.56 mcg/ml): 0 strains; Number of strains the growth of which has been inhibited (Geotrichum sp.; Geotrichum sp. after 24 hrs, 1.56 mcg/ml): 0 strains; Number of strains the growth of which has been inhibited (Geotrichum sp.; Geotrichum sp. after 48 hrs, 1.56 mcg/ml): 0 strains; Number of strains the growth of which has been inhibited (Geotrichum sp.; [22]): 0 strains; Minimum inhibitory concentration against cerevisiae (Saccahromyces cerevisiae): 2 µg/mL (≈ 2.16 µM); Number of strains the growth of which has been inhibited (Candida albicans [2]; Candida albicans after 24 hrs, 1.56 mcg/ml): 1 strains; Number of strains the growth of which has been inhibited (Candida albicans [2]; [23]): 11 strains; Number of strains the growth of which has been inhibited (Candida albicans [2]; [24]): 0 strains; Number of strains the growth of which has been inhibited (Candida albicans [2]; [25]): 0 strains; Number of strains the growth of which has been inhibited (Candida albicans [2]; [26]): 0 strains; Number of strains the growth of which has been inhibited (Candida albicans [2]; [27]): 0 strains; Number of strains the growth of which has been inhibited (Candida albicans [2]; Candida albicans after 48 hrs, 1.56 mcg/ml): 0 strains; Number of strains the growth of which has been inhibited (Candida albicans [2]; [28]): 2 strains; Number of strains the growth of which has been inhibited (Candida albicans [2]; [29]): 10 strains; Number of strains the growth of which has been inhibited (Candida albicans [2]; [30]): 0 strains; Number of strains the growth of which has been inhibited (Candida albicans [2]; [31]): 0 strains; Number of strains the growth of which has been inhibited (Candida albicans [2]; [32]): 0 strains |
